From patent publication US9635854B2, “Controlling red rice with mesotrione” (FMC Corporation, priority 2014, dated 2017)
Read-outs that look alike come from different tables or passages of the source.

Tests used:
[1] = test system: Benghal dayflower (Commelina benghalensis); assay: Pre-emergent weed control in direct-seeded flooded rice (Example 2); type: in vivo; settings: 28 Days After Treatment
From the text: (§1) Seeds of crops, rice (Taggart and Wells varieties) and weeds, yellow nutsedge (Cyperus esculentus), barnyardgrass (Echinochloa crus-galli), large crabgrass (Digitaria sanguinalis), hemp sesbania (Sesbania herbacea), Benghal dayflower (Commelina benghalensis), red rice (Oryza sativa) and broadleaf signalgrass (Urochloa platyphylla) were planted in two gallon pots containing top soil. Each pot was watered well before the application of mesotrione (Callisto® Herbicide from Syngenta Crop Protection).

[2] = test system: hemp sesbania (Sesbania herbacea); assay: as above; type: in vivo; settings: 28 Days After Treatment
From the text: as §1

[3] = test system: large crabgrass (Digitaria sanguinalis); assay: as above; type: in vivo; settings: 28 Days After Treatment
From the text: as §1

[4] = test system: broadleaf signalgrass (Urochloa platyphylla); assay: as above; type: in vivo; settings: 28 Days After Treatment
From the text: as §1

[5] = test system: yellow nutsedge (Cyperus esculentus); assay: as above; type: in vivo; settings: for % weed control Nutsedge: pre-emergent, flooded, 28 Days After Treatment
From the text: as §1

[6] = test system: barnyardgrass (Echinochloa crus-galli); assay: as above; type: in vivo; settings: 28 Days After Treatment
From the text: as §1

red rice (Oryza sativa) [7] = assay: as above; type: in vivo; settings: for % weed control Red Rice: pre-emergent, flooded, 28 Days After Treatment
From the text: as §1

yellow nutsedge = assay: Direct seeded dryland rice test, pre-emergent (FIG. 2); type: in vivo; settings: pre-emergent treatment at 25 g ai/ha
red rice (Oryza sativa) [8] = assay: Pre-emergent evaluation on dryland rice, red rice control; type: in vivo; settings: for Percent red rice control: PRE, direct-seeded dryland rice
From the text: (§2) Rice (Oryza sativa) was planted in 6″ by 10″ fiber flats filled with sterile top soil. Five rows were made in each flat and the three rice varieties (′Cybonee, ‘Jupiter’, and ‘Taggart’) were planted in the center 3 rows and a row of red rice (Oryza sativa) was planted on either end of the flat. The flats were watered after planting. After application flats were placed in the greenhouse and lightly watered. […] The flats were moved to a greenhouse and watered and fertilized routinely. Studies were conducted using randomized complete block design with four replications. In both studies, visual percent red rice control and rice injury were recorded at 14, 21, and 28 days after treatment (DAT), using a scale of 0 (no control/injury) to 100 (complete plant death).

[9] = test system: Rice (Oryza sativa) 'Taggart'; settings: PRE, direct-seeded dryland rice
From the text: as §2

[10] = test system: Rice (Oryza sativa) 'Cybonee'; settings: PRE, direct-seeded dryland rice
From the text: as §2

[11] = pre-emergent treatment at 50 g ai/ha, flooded rice test

CS(=O)(=O)c1ccc(C(=O)C2C(=O)CCCC2=O)c([N+](=O)[O-])c1 [Mesotrione, mesotrione]
% weed control Dayflower ([1]; 6 g ai/ha): 17% | % weed control Dayflower ([1]; 12 g ai/ha): 63% | % weed control Dayflower ([1]; 25 g ai/ha): 67% | % weed control Dayflower ([1]; 50 g ai/ha): 93% | % weed control Dayflower ([1]; 100 g ai/ha): 83% | % weed control Dayflower ([1]; 200 g ai/ha): 90% | % weed control Hemp ([2]; 6 g ai/ha): 0% | % weed control Hemp ([2]; 12 g ai/ha): 30% | % weed control Hemp ([2]; 25 g ai/ha): 13% | % weed control Hemp ([2]; 50 g ai/ha): 45% | % weed control Hemp ([2]; 100 g ai/ha): 98% | % weed control Hemp ([2]; 200 g ai/ha): 100% | % weed control Crabgrass ([3]; 6 g ai/ha): 70% | % weed control Crabgrass ([3]; 12 g ai/ha): 100% | % weed control Crabgrass ([3]; 25 g ai/ha): 100% | % weed control Crabgrass ([3]; 50 g ai/ha): 100% | % weed control Crabgrass ([3]; 100 g ai/ha): 100% | % weed control Crabgrass ([3]; 200 g ai/ha): 100% | % weed control Signalgrass ([4]; 6 g ai/ha): 23% | % weed control Signalgrass ([4]; 12 g ai/ha): 23% | % weed control Signalgrass ([4]; 25 g ai/ha): 57% | % weed control Signalgrass ([4]; 50 g ai/ha): 90% | % weed control Signalgrass ([4]; 100 g ai/ha): 98% | % weed control Signalgrass ([4]; 200 g ai/ha): 100% | yellow nutsedge control (words, FIG. 1) [5, 11]: controlled | % weed control Nutsedge ([5]; 6 g ai/ha): 38% | % weed control Nutsedge ([5]; 12 g ai/ha): 77% | % weed control Nutsedge ([5]; 25 g ai/ha): 92% | % weed control Nutsedge ([5]; 50 g ai/ha): 97% | % weed control Nutsedge ([5]; 100 g ai/ha): 100% | % weed control Nutsedge ([5]; 200 g ai/ha): 100% | % weed control Barnyardgrass ([6]; 6 g ai/ha): 10% | % weed control Barnyardgrass ([6]; 12 g ai/ha): 32% | % weed control Barnyardgrass ([6]; 25 g ai/ha): 35% | % weed control Barnyardgrass ([6]; 50 g ai/ha): 62% | % weed control Barnyardgrass ([6]; 100 g ai/ha): 82% | % weed control Barnyardgrass ([6]; 200 g ai/ha): 100% | red rice control (words, FIG. 1) (red rice (Oryza sativa) [7]; [11]): controlled | % weed control Red Rice (red rice (Oryza sativa) [7]; 6 g ai/ha): 23% | % weed control Red Rice (red rice (Oryza sativa) [7]; 12 g ai/ha): 33% | % weed control Red Rice (red rice (Oryza sativa) [7]; 25 g ai/ha): 90% | % weed control Red Rice (red rice (Oryza sativa) [7]; 50 g ai/ha): 100% | % weed control Red Rice (red rice (Oryza sativa) [7]; 100 g ai/ha): 97% | % weed control Red Rice (red rice (Oryza sativa) [7]; 200 g ai/ha): 100% | red rice control (red rice (Oryza sativa) [7]; summary of Table 7 data): controls | yellow nutsedge control (words, FIG. 2) (yellow nutsedge): controlled | Percent red rice control (red rice (Oryza sativa) [8]; 14 DAT, 12.5 g ai/ha): 33 D % | Percent red rice control (red rice (Oryza sativa) [8]; 14 DAT, 25 g ai/ha): 70 B % | Percent red rice control (red rice (Oryza sativa) [8]; 14 DAT, 37.5 g ai/ha): 74 B % | Percent red rice control (red rice (Oryza sativa) [8]; 14 DAT, 50 g ai/ha): 79 A % | Percent red rice control (red rice (Oryza sativa) [8]; 14 DAT, 62.5 g ai/ha): 80 A % | Percent red rice control (red rice (Oryza sativa) [8]; 14 DAT, 75 g ai/ha): 80 A % | Percent red rice control (red rice (Oryza sativa) [8]; 14 DAT, 87.5 g ai/ha): 80 A % | Percent red rice control (red rice (Oryza sativa) [8]; 14 DAT, 100 g ai/ha): 80 A % | Percent red rice control (red rice (Oryza sativa) [8]; 21 DAT, 12.5 g ai/ha): 60 C % | Percent red rice control (red rice (Oryza sativa) [8]; 21 DAT, 25 g ai/ha): 81 B % | Percent red rice control (red rice (Oryza sativa) [8]; 21 DAT, 37.5 g ai/ha): 84 AB % | Percent red rice control (red rice (Oryza sativa) [8]; 21 DAT, 50 g ai/ha): 86 AB % | Percent red rice control (red rice (Oryza sativa) [8]; 21 DAT, 62.5 g ai/ha): 89 AB % | Percent red rice control (red rice (Oryza sativa) [8]; 21 DAT, 75 g ai/ha): 90 A % | Percent red rice control (red rice (Oryza sativa) [8]; 21 DAT, 87.5 g ai/ha): 90 A % | Percent red rice control (red rice (Oryza sativa) [8]; 21 DAT, 100 g ai/ha): 90 A % | Percent red rice control (red rice (Oryza sativa) [8]; 28 DAT, 12.5 g ai/ha): 62 B % | Percent red rice control (red rice (Oryza sativa) [8]; 28 DAT, 25 g ai/ha): 89 A % | Percent red rice control (red rice (Oryza sativa) [8]; 28 DAT, 37.5 g ai/ha): 88 A % | Percent red rice control (red rice (Oryza sativa) [8]; 28 DAT, 50 g ai/ha): 91 A % | Percent red rice control (red rice (Oryza sativa) [8]; 28 DAT, 62.5 g ai/ha): 92 A % | Percent red rice control (red rice (Oryza sativa) [8]; 28 DAT, 75 g ai/ha): 92 A % | Percent red rice control (red rice (Oryza sativa) [8]; 28 DAT, 87.5 g ai/ha): 95 A % | Percent red rice control (red rice (Oryza sativa) [8]; 28 DAT, 100 g ai/ha): 93 A % | red rice control (words, FIG. 3) (red rice (Oryza sativa) [8]; pre-emergent treatment at 25 g ai/ha, direct seeded dryland rice test): controlled | Percent rice injury Taggart ([9]; 14 DAT, 12.5 g ai/ha): 0 E % | Percent rice injury Taggart ([9]; 14 DAT, 25 g ai/ha): 0 E % | Percent rice injury Taggart ([9]; 14 DAT, 37.5 g ai/ha): 1 E % | Percent rice injury Taggart ([9]; 14 DAT, 50 g ai/ha): 2 DE % | Percent rice injury Taggart ([9]; 14 DAT, 62.5 g ai/ha): 6 C % | Percent rice injury Taggart ([9]; 14 DAT, 75 g ai/ha): 5 CD % | Percent rice injury Taggart ([9]; 14 DAT, 87.5 g ai/ha): 9 BC % | Percent rice injury Taggart ([9]; 14 DAT, 100 g ai/ha): 11 B % | Percent rice injury Taggart ([9]; 21 DAT, 12.5 g ai/ha): 0 C % | Percent rice injury Taggart ([9]; 21 DAT, 25 g ai/ha): 0 C % | Percent rice injury Taggart ([9]; 21 DAT, 37.5 g ai/ha): 1 BC % | Percent rice injury Taggart ([9]; 21 DAT, 50 g ai/ha): 5 BC % | Percent rice injury Taggart ([9]; 21 DAT, 62.5 g ai/ha): 9 BC % | Percent rice injury Taggart ([9]; 21 DAT, 75 g ai/ha): 10 BC % | Percent rice injury Taggart ([9]; 21 DAT, 87.5 g ai/ha): 11 BC % | Percent rice injury Taggart ([9]; 21 DAT, 100 g ai/ha): 13 B % | Percent rice injury Taggart ([9]; 28 DAT, 12.5 g ai/ha): 0 D % | Percent rice injury Taggart ([9]; 28 DAT, 25 g ai/ha): 0 D % | Percent rice injury Taggart ([9]; 28 DAT, 37.5 g ai/ha): 1 D % | Percent rice injury Taggart ([9]; 28 DAT, 50 g ai/ha): 6 CD % | Percent rice injury Taggart ([9]; 28 DAT, 62.5 g ai/ha): 12 BCD % | Percent rice injury Taggart ([9]; 28 DAT, 75 g ai/ha): 23 BC % | Percent rice injury Taggart ([9]; 28 DAT, 87.5 g ai/ha): 29 B % | Percent rice injury Taggart ([9]; 28 DAT, 100 g ai/ha): 50 A % | Percent rice injury Cybonet ([10]; 14 DAT, 12.5 g ai/ha): 6 BCD % | Percent rice injury Cybonet ([10]; 14 DAT, 25 g ai/ha): 1 D % | Percent rice injury Cybonet ([10]; 14 DAT, 37.5 g ai/ha): 1 D % | Percent rice injury Cybonet ([10]; 14 DAT, 50 g ai/ha): 1 D % | Percent rice injury Cybonet ([10]; 14 DAT, 62.5 g ai/ha): 4 D % | Percent rice injury Cybonet ([10]; 14 DAT, 75 g ai/ha): 5 CD % | Percent rice injury Cybonet ([10]; 14 DAT, 87.5 g ai/ha): 11 BC % | Percent rice injury Cybonet ([10]; 14 DAT, 100 g ai/ha): 12 B % | Percent rice injury Cybonet ([10]; 21 DAT, 12.5 g ai/ha): 5 DE % | Percent rice injury Cybonet ([10]; 21 DAT, 25 g ai/ha): 1 E % | Percent rice injury Cybonet ([10]; 21 DAT, 37.5 g ai/ha): 1 E % | Percent rice injury Cybonet ([10]; 21 DAT, 50 g ai/ha): 5 DE % | Percent rice injury Cybonet ([10]; 21 DAT, 62.5 g ai/ha): 5 DE % | Percent rice injury Cybonet ([10]; 21 DAT, 75 g ai/ha): 8 BCD % | Percent rice injury Cybonet ([10]; 21 DAT, 87.5 g ai/ha): 12 BC % | Percent rice injury Cybonet ([10]; 21 DAT, 100 g ai/ha): 13 B % | Percent rice injury Cybonet ([10]; 28 DAT, 12.5 g ai/ha): 5 DE % | Percent rice injury Cybonet ([10]; 28 DAT, 25 g ai/ha): 1 E % | Percent rice injury Cybonet ([10]; 28 DAT, 37.5 g ai/ha): 1 E % | Percent rice injury Cybonet ([10]; 28 DAT, 50 g ai/ha): 6 DE % | Percent rice injury Cybonet ([10]; 28 DAT, 62.5 g ai/ha): 9 DE % | Percent rice injury Cybonet ([10]; 28 DAT, 75 g ai/ha): 15 CD % | Percent rice injury Cybonet ([10]; 28 DAT, 87.5 g ai/ha): 25 BC % | Percent rice injury Cybonet ([10]; 28 DAT, 100 g ai/ha): 33 AB %
